The values that follow come from ChEMBL document CHEMBL1140015, “Pyrazolone methylamino piperidine derivatives as novel CCR3 antagonists” (Bioorg Med Chem Lett, 2007).

In data set [1] the target is T1, C-C chemokine receptor type 3 (Homo sapiens, UniProt P51677).
T1 sequence (P51677 whole entry): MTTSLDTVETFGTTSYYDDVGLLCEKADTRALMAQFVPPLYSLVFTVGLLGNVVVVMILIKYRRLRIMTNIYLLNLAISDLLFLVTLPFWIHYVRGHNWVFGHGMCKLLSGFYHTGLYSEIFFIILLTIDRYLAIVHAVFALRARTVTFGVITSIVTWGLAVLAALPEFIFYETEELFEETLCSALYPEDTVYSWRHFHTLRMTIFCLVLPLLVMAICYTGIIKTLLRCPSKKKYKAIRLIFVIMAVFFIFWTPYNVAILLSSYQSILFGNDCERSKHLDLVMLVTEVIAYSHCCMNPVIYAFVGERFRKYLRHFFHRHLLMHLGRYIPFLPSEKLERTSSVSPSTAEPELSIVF
As to the kind of experiment: Displacement of [125I]eotaxin from CCR3 receptor in human eosinophils. For orientation: Displacement assays read how much labelled ligand stays bound in the presence of the test substance.

The nature of data set [2]: Metabolic stability in rat liver microsomes assessed as intrinsic clearance. In kind it is ADME, Microsome. For orientation: Liver microsomes are a subcellular fraction often used to study metabolism.
For data set [3], the system named is Hepatocyte. Description: Metabolic stability in rat hepatocytes after 2 hrs. It is filed as ADME, cell-based.
Data set [4] deals with Hepatocyte. Description: Metabolic stability in rat hepatocytes after 19 hrs. It is filed as ADME, cell-based.
Data set [5] can be described thus: Solubility in water at pH 7.4.
Data set [6] can be described thus: Permeability from apical to basolateral side of Caco-2 cell membrane. To be noted: human. (In general: Passage across Caco-2 layers is used to estimate intestinal permeability.)
Data set [7] has as its target T1, C-C chemokine receptor type 3. Description: Antagonist activity at human CCR3 receptor assessed as inhibition of calcium flux. It is filed as functional.

Converted amounts (≈) assume the structure as drawn.

For the molecule `Cc1c(CN(CCc2ccc(Cl)cc2)C2CCN(C(=O)c3c(F)cccc3F)CC2)c(=O)n(C2CCCCC2)n1C`, the IC50 (in general, the concentration at which inhibition is half-maximal) in data set [1] is 100 nM.
Regarding `Cc1c(CN(CCc2ccccn2)C2CCN(C(=O)c3c(F)cccc3F)CC2)c(=O)n(-c2ccc(F)cc2)n1C`, the microsomal CLint (in general, a measure of how fast metabolising enzymes remove a compound, apart from limits set by blood flow) in data set [2] came to 82 µL/min/mg. This molecule gave an IC50 in data set [1] of 1000 nM. The Stability in data set [3] is 35%; in data set [4] it was 78%.
Molecule `Cc1c(CN(CCc2ccc(Cl)cc2)C2CCN(C(=O)c3c(F)cccc3F)CC2)c(=O)n(-c2ccc(N)cc2)n1C` showed a 50% inhibitory concentration (IC50) in data set [1] of 79 nM.
On the same count and under the same terms, as for `Cc1c(CN(CCc2ccc(Cl)cc2)C2CCN(C(=O)c3c(F)cccc3F)CC2)c(=O)n(-c2ccc(C#N)cc2)n1C`, the figure is 158 nM; as for `COc1ccc(-n2c(=O)c(CN(CCc3ccc(Cl)cc3)C3CCN(C(=O)c4c(F)cccc4F)CC3)c(C)n2C)cc1`, 100 nM; as for `Cc1c(CN(CCc2ccc(Cl)cc2)C2CCN(C(=O)c3c(F)cccc3F)CC2)c(=O)n(-c2ccc(C(=O)O)cc2)n1C`, 2500 nM.
In turn, `Cc1c(CN(CCc2ccc(Cl)cc2)C2CCN(C(=O)c3c(F)cccc3F)CC2)c(=O)n(-c2ccc(Cl)cc2)n1C` gave a half-maximal inhibitory concentration (IC50) in data set [1] of 63 nM.
Same read-out and setting: as for `COc1ccncc1-n1c(=O)c(CN(CCc2ccc(Cl)cc2)C2CCN(C(=O)c3c(F)cccc3F)CC2)c(C)n1C`, the figure is 250 nM.
As to `Cc1c(CN(CCc2ccc(F)cc2)C2CCN(C(=O)c3c(F)cccc3F)CC2)c(=O)n(-c2ccc(F)cc2)n1C`, the solubility (commonly how much of the substance goes into solution per volume) in data set [5] is 100 µg/mL (≈ 172 µM). In data set [2], the microsomal CLint stood at 303 µL/min/mg. In data set [1], this molecule showed an IC50 of 200 nM.
In turn, `Cc1c(CN(CCc2ccc(N)cc2)C2CCN(C(=O)c3c(F)cccc3F)CC2)c(=O)n(-c2ccc(F)cc2)n1C` came in with a solubility in data set [5] of 900 µg/mL (≈ 1560 µM). Further, the intrinsic metabolic clearance (microsomal CLint) in data set [2] was less than 50 µL/min/mg. The IC50 in data set [1] amounted to 2500 nM. Also, the results for the Stability in data set [3] and in data set [4] were 23% and 71%, respectively. In addition, the Papp A→B (in general, the apparent permeability from the apical to the basolateral side of a cell layer) in data set [6] was less than 1 ×10⁻⁶ cm/s.
With `Cc1c(CN(CCc2ccc(Cl)cc2)C2CCN(C(=O)c3c(F)cccc3F)CC2)c(=O)n(-c2ccccc2)n1C`, in data set [1], the IC50 came out at 32 nM.
The same measure, in the same setting: as for `Cc1c(CN(CCCCc2ccccc2)C2CCN(C(=O)c3cccc4ccccc34)CC2)c(=O)n(-c2ccccc2)n1C`, the figure is 158 nM.
As to `Cc1c(CN(CCc2ccc(Cl)cc2)C2CCN(C(=O)c3c(F)cccc3F)CC2)c(=O)n(-c2ccc(F)cc2)n1C`, the solubility in data set [5] was 1 µg/mL (≈ 1.67 µM). For the same molecule, in data set [2], the microsomal CLint turned out to be 472 µL/min/mg. For the same molecule, the IC50 amounted to 16 nM in data set [7] and 20 nM in data set [1]. Moreover, the Stability in data set [3] is recorded as 52%; in data set [4], 95%. Further, the Papp A→B in data set [6] turned out to be 8.1 ×10⁻⁶ cm/s.
In data set [5], `Cc1c(CN(CCc2ccc([N+](=O)[O-])cc2)C2CCN(C(=O)c3c(F)cccc3F)CC2)c(=O)n(-c2ccc(F)cc2)n1C` had a solubility of 100 µg/mL (≈ 165 µM). The intrinsic clearance (microsomal CLint) in data set [2] was found to be 235 µL/min/mg. The molecule also showed an IC50 in data set [1] of 6.3 nM. Further, the Stability in data set [3] was found to be 35%; in data set [4], 95%.
On the same counts, the results for `Cc1ccc(C(=O)N2CCC(N(CCc3ccc([N+](=O)[O-])cc3)Cc3c(C)n(C)n(-c4ccc(F)cc4)c3=O)CC2)c(C)n1` are 1200 µg/mL (≈ 2000 µM), 79 µL/min/mg, 12 nM, 38% and 94%.
Consider `Cc1c(CN(CCc2ccc([N+](=O)[O-])cc2)C2CCN(C(=O)c3ccccn3)CC2)c(=O)n(-c2ccc(F)cc2)n1C`, for which, in data set [5], the solubility is 1260 µg/mL (≈ 2200 µM). Moreover, the microsomal CLint in data set [2] came out at 62 µL/min/mg. In data set [1], this molecule showed an IC50 of 12 nM. Also, the Stability turned out to be 29% in data set [3] and 82% in data set [4]. The molecule also yielded a Papp A→B in data set [6] of 7.8 ×10⁻⁶ cm/s.
For `Cc1c(CN(CCc2ccc(S(N)(=O)=O)cc2)C2CCN(C(=O)c3c(F)cccc3F)CC2)c(=O)n(-c2ccc(F)cc2)n1C`, the solubility in data set [5] came out at 400 µg/mL (≈ 623 µM). In addition, the microsomal CLint in data set [2] was less than 50 µL/min/mg. In data set [1], this molecule registered an IC50 of more than 10000 nM. In addition, the Stability in data set [3] is on record as 43%; in data set [4] it was 86%. For the same molecule, the Papp A→B in data set [6] is less than 1 ×10⁻⁶ cm/s.
The molecule `CC(=O)Nc1ccc(-n2c(=O)c(CN(CCc3ccc(Cl)cc3)C3CCN(C(=O)c4c(F)cccc4F)CC3)c(C)n2C)cc1` returned an IC50 in data set [1] of 400 nM.
Molecule `Cc1c(CN(CCc2ccc(Cl)cc2)C2CCN(C(=O)c3cccc[n+]3[O-])CC2)c(=O)n(-c2ccc(F)cc2)n1C` returned a solubility in data set [5] of more than 2000 µg/mL. Besides, the microsomal CLint in data set [2] is less than 50 µL/min/mg. The molecule also had a concentration for half-maximal inhibition (IC50) in data set [1] of 200 nM. Also, the Stability is 15% in data set [3] and 55% in data set [4]. The same molecule showed a Papp A→B in data set [6] of 1.3 ×10⁻⁶ cm/s.
In data set [1], `Cc1c(CN(CCc2ccc(Cl)cc2)C2CCN(C(=O)c3c(F)cccc3F)CC2)c(=O)n(-c2ccc(N(C)C)cc2)n1C` came in with an IC50 of 100 nM.
On the same count and under the same terms, as for `Cc1c(CN(CCc2ccc(Cl)cc2)C2CCN(C(=O)c3c(F)cccc3F)CC2)c(=O)n(-c2cnccc2Cl)n1C`, the figure is 100 nM; as for `Cc1c(CN(CCc2ccc(Cl)cc2)C2CCN(C(=O)c3c(F)cccc3F)CC2)c(=O)n(-c2cccc(F)c2)n1C`, 100 nM.
Same read-out and setting: as for `Cc1c(CN(CCc2ccc(Cl)cc2)C2CCN(C(=O)c3c(F)cccc3F)CC2)c(=O)n(-c2ccccc2F)n1C`, the figure is 40 nM.
Still for that read-out and setting: as for `Cc1c(CN(CCc2ccc(Cl)cc2)C2CCN(C(=O)c3c(F)cccc3F)CC2)c(=O)n(-c2ccc(O)cc2)n1C`, the figure is 100 nM; as for `Cc1c(CN(CCc2ccc(Cl)cc2)C2CCN(C(=O)c3c(F)cccc3F)CC2)c(=O)n(-c2ccc([N+](=O)[O-])cc2)n1C`, 100 nM.
`Cc1c(CN(CCc2ccc(Cl)cc2)C2CCN(C(=O)c3c(F)cccc3F)CC2)c(=O)n(-c2ccccn2)n1C` returned an IC50 in data set [1] of 25 nM.
The molecule `Cc1c(CN(CCc2cccnc2)C2CCN(C(=O)c3c(F)cccc3F)CC2)c(=O)n(-c2ccc(F)cc2)n1C` registered a solubility in data set [5] of more than 2000 µg/mL. Also, the microsomal CLint in data set [2] worked out at 113 µL/min/mg. Moreover, in data set [1], the IC50 was found to be 2500 nM.
